Legend:
[1] = system: T-ALL cell line (HSB-2); experiment: Combinatorial high throughput drug screen; format: cell-based
[2] = target: Human recombinant HDAC4 (Homo sapiens, UniProt P56524); experiment: HDAC4 inhibition assay; format: biochemical; settings: selectivity for HDAC6 over HDAC4
[3] = system: HL60 cells; experiment: Annexin V-propidium iodide apoptosis assay; format: cell-based; settings: HL60, 24 h
[4] = system: leukemia cell lines; experiment: CellTiter-Glo cell viability assay, panel of seven leukemia cell lines; format: cell-based; settings: 72 h, read-out: cell viability IC50
[5] = system: HL60 cells; experiment: Western blot of protein acetylation in HL60 cells; format: cell-based; settings: HL60, 24 h, two concentrations, immunoblot

Human recombinant HDAC4, sequence (P56524 whole entry): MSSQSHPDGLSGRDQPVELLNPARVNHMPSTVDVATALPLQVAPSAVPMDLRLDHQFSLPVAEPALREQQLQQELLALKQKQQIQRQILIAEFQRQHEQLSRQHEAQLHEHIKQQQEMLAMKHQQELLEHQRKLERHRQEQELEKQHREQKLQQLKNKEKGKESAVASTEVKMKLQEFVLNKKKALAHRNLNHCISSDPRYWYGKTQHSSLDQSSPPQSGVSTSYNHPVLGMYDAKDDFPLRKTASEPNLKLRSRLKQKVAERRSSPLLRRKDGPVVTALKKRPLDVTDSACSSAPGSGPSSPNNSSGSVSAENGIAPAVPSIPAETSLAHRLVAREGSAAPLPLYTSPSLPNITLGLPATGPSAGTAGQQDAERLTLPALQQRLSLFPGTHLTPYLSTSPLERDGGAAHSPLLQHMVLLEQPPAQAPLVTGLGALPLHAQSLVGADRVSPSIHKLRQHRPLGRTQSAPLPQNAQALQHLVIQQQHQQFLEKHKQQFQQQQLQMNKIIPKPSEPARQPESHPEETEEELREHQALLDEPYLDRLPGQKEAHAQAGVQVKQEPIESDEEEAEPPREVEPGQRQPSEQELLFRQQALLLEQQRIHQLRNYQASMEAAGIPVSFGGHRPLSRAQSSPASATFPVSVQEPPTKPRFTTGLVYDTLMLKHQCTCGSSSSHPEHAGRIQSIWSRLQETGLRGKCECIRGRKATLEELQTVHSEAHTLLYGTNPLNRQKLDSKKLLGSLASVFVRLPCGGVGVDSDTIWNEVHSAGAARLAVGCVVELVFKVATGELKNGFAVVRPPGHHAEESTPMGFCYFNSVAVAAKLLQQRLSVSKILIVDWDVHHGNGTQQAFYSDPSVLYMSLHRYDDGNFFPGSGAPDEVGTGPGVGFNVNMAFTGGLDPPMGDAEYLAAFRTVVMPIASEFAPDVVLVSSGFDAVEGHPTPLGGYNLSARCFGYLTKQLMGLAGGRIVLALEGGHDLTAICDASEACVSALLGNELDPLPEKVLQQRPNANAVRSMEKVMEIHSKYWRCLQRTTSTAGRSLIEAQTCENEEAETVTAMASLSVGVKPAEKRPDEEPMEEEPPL

`O=C(NO)c1ccc(CN(Cc2nnnn2Cc2ccccc2)C(=O)c2ccccc2C(F)(F)F)cc1` [6l] was tested, and the “cytotoxic activity in combination with anthracyclines” value ([1]; HSB-2, 6l […] and 5 μM with epirubicin (Epi) and daunorubicin (Dauno)) was “significant enhancement of cytotoxic activity”, the “cytotoxicity as single agent” value ([1]; HSB-2, 6l alone) was “unable to affect the cytotoxicity” and the “SI (HDAC4 vs HDAC6)” value [2] was 1857. The “cytotoxic effect as single agent (number of viable cells)” value ([3]; 6l alone at 2.5 or 5 μM) was “no cytotoxic effect”, the “apoptosis induction in combination with BTZ (late apoptotic/dead cells)” value ([3]; combination with bortezomib (BTZ) versus BTZ alone) was “augmented the apoptosis induction of BTZ” and the IC50 [4] was over 20 µM. For the same compound, the “acetylation status of histone H3 (ac-H3), marker for class I HDAC inhibition” value [5] was “unaffected” and the “α-tubulin acetylation (ac-α-tubulin), marker for HDAC6 inhibition” value [5] was “induced α-tubulin acetylation”.

From PMC7762828 (Journal of medicinal chemistry, 2020)
